Data taken from PMC6874057, “Synthesis of Chalcone Derivatives: Inducing Apoptosis of HepG2 Cells via Regulating Reactive Oxygen Species and Mitochondrial Pathway” (Frontiers in Pharmacology, 2019).

Legend:
Type in all cases: cell-based, human
A549 = assay: MTT cell viability assay, A549; conditions: Homo sapiens, A549, 48 h, mean ± SE
Description: (§1) HeLa, A549, HepG2, HL-60, and WI-38 cell lines were incubated in DMEM solution containing 10% FBS for 48 h. The incubated tumor cells were seeded into 96-well plates (5 × 10^3 cells/well) to make them attach for 12 h. Afterwards, the cells were processed with the various concentrations of the synthetic compounds and 5-FU for 48 h. After removing the cell culture supernatant, 10 µl MTT (5 mg/ml) solution was dripped into the cells to generate a formazan product, which were dissolved by dimethyl sulfoxide (DMSO) 4 h later. Multifunction microplate reader (Bio-Rad Laboratories, Shanghai, China) was adopted to measure the absorbance at the wave length of 490 nm. The IC50 (the lowest drug concentration causing 50% of the tumor cells inhibition) was then calculated using GraphPad Prism Software (version 5.02) and used to indicate the cytotoxic effect of the target compounds on the selected tumor cells.

Hela = assay: MTT cell viability assay, Hela; conditions: Homo sapiens, HeLa, 48 h, mean ± SE
Description: as §1

HepG2 = assay: MTT cell viability assay, HepG2; conditions: Homo sapiens, HepG2, 48 h, mean ± SE
Description: as §1

HL-60 = assay: MTT cell viability assay, HL-60; conditions: Homo sapiens, HL-60, 48 h, mean ± SE
Description: as §1

WI-38 = assay: MTT cell viability assay, normal cell line WI-38; conditions: Homo sapiens, WI-38, 48 h, normal cells, mean ± SE
Description: as §1

HepG2 cells = assay: Inhibition curve of a14 on HepG2 cells (MTT, 24, 48, 72 h); conditions: in words
Description: HepG2 cells (5 × 10^3 cells/well) were seeded into the 96-well plates and kept to attach overnight. […] After the incubation time, 10 µl MTT was added to each well, and the culture was continued in a sterile incubator at 37°C for 4 h under the environment of 5% CO2. Then, the supernatant medium was discarded, and the solid was dissolved in 200 µl DMSO. Then, a multifunction microplate reader (Bio-Rad Laboratories, Shanghai, China) was applied to record the absorbance at 490 nm. Cell growth inhibition rates at different concentrations were calculated and plotted using Origin Pro8 software. Each set of data represented the average value of three independent experiments.

[1] = test system: mitochondrial membrane potential in HepG2 cells; assay: Mitochondrial membrane potential by JC-1 probe; conditions: a14 50 µM
Description: JC-1 probe was used to detect changes in MMP. Firstly, HepG2 cells (3 × 10^5 cells/well) were seeded into a six-well plate overnight for adherence, and then treated with various concentrations of a14 for 48 h. Next, the cells were treated with JC-1 (2.5 µg/ml) at 37°C for 10 min in the dark and rinsed three times with PBS. Then, the six-well plate was placed under the fluorescence microscope (excitation 480/30× nm, emission 515 nm) to observe the fluorescence color and intensity of JC-1 in the cells. In addition, HepG2 cells (3 × 10^5 cells/well) were inoculated on another six-well plate overnight to allow adherence, and then treated with a14 (50 µM) for 0, 12, 24, 36, and 48 h, adding CCCP (without a14) for 20 min to completely lose the mitochondrial membrane potential. Cells were then incubated with JC-1 (2.5 µg/ml) at 37°C in the dark for 10 min and rinsed with PBS for three times. Fluorescence intensity of residual JC-1 in cells was measured by Beckman Coulter flow cytometer (FITC, 525/40BP). The data obtained was analyzed by CytExpert 2.0 software imbedded in the flow cytometry.

Bax in HepG2 cells = assay: Western blot, Bax; conditions: different concentrations, 48 h, dose-dependent; in words
Description: (§2) HepG2 cells (3 × 10^5 cells/well) were seeded into a six-well plate overnight for adherence, and then treated with a14 (0, 30, 40, 50, 60, and 70 µM) for 48 h. After the cells were collected by centrifugation, they were lysed with the radio immunoprecipitation assay (RIPA) buffer (high) containing 50 mM Tris (pH = 7.4), 150 mM NaCl, 1% TritonX-100, 1% sodium deoxycholate, 0.1% sodium dodecyl sulfate (SDS), 2 mM sodium pyrophosphate, 25 mM β-glycerophosphate, 1 mM ethylenediaminetetraacetic acid (EDTA), 1 mM Na3VO4, and 0.5 ug/ml leupeptin (Beijing Solarbio Science & Technology Co., Ltd.).The extract was then centrifuged at 12,000 rpm for 30 min and the total protein concentration was quantified using the BCA kit (Beijing Solarbio Science & Technology Co., Ltd.). The protein extracts were mixed with the SDS-PAGE protein loading buffer (Beijing Solarbio Science & Technology Co., Ltd.) and then boiled in 100°C water bath for 10 min. The gel was gelatinized using an SDS Gel Kit (Beijing Solarbio Science & Technology Co., Ltd.) and protein extracts were separated by protein SDS-polyacrylamide gel electrophoresis and transferred to Immobilon-NC Membrane (Beijing Solarbio Science & Technology Co., Ltd.). […]

Bcl-2 in HepG2 cells = assay: Western blot, Bcl-2; conditions: different concentrations, 48 h, dose-dependent; in words
Description: as §2

Caspase 3 in HepG2 cells = assay: Western blot, Caspase 3; conditions: 48 h, compared to the control group; in words
Description: as §2

IC50 (A549): 36.7 ± 1.08 µM
IC50 (Hela): 23.3 ± 2.35 µM
IC50 (HepG2): 38.3 ± 0.59 µM
IC50 (HL-60): 121 ± 3.58 µM
SMILES: COc1cc(/C=C/C(=O)c2ccc(O)c(C(N)=O)c2)cc(OC)c1OC [a14]
IC50 (WI-38): 121.3 ± 0.87 µM
inhibitory activities on HepG2 cells (HepG2 cells; 24, 48, 72 h, different concentrations): dose- and time-dependent manner
growth inhibition effect on HepG2 cells (HepG2 cells; action time 48 or 72 h): significantly improved
cytotoxic effect on HepG2 cells (HepG2 cells; action time less than 24 h): relatively weak
JC-1 (FITC), right of the gate line (green fluorescence) ([1]; 48 h (untreated 50.08%)): 91.94%
JC-1 fluorescence colour under the fluorescence microscope ([1]; 48 h, in words): almost all cells had shown green fluorescence
expression of pro-apoptotic proteins (Bax) (Bax in HepG2 cells): up-regulated
expression of anti-apoptotic proteins (Bcl-2) (Bcl-2 in HepG2 cells): down-regulated
expression level of Caspases 3 (Caspase 3 in HepG2 cells): decrease
